This note sets out measurements from patent US20170260178A1 (SPERO GYRASE, INC., priority 2012, published 2017).

One experiment deals with S. pyogenes (ATCC 51339). The experiment is described as follows: Bacterial assay: MIC against S. pyogenes. Conditions: Streptococcus pyogenes, ATCC51339, read-out: minimal inhibitory concentration (MIC). Format: cell-based, Streptococcus pyogenes.
In experiment [1] the test system is H. influenzae (ATCC 49247). The experiment is described as follows: Bacterial assay: MIC against H. influenzae. Conditions: Haemophilus influenzae, ATCC49247; H. influenzae ATCC 49247; read-out: minimal inhibitory concentration (MIC). In kind it is cell-based.
A further experiment relates to S. aureus (ATCC 29213). Put plainly: Bacterial assay: MIC against S. aureus. Format: cell-based, Staphylococcus aureus. As to conditions: Staphylococcus aureus, ATCC29213, read-out: minimal inhibitory concentration (MIC).

A value given as a limit tells only on which side of the number the result lay.

Take `CCNC(=O)Nc1nc2cc(-c3cnc([C@H](C)O)nc3)cc(-c3ccccn3)c2s1` [Compound 23, 1-ethyl-3-[5-[2-[(1S)-1-hydroxyethyl]pyrimidin-5-yl]-7-(2-pyridyl)-1,3-benzothiazol-2-yl]urea]: the MIC is at most 1 mg/L in the experiment on S. pyogenes (ATCC 51339), at most 2 mg/L in experiment [1] and at most 1 mg/L with S. aureus (ATCC 29213).
For the compound `CCNC(=O)Nc1nc2cc(-c3cnc([C@@H](O)[C@H](O)C(F)F)nc3)cc(-c3ccccn3)c2s1` (relative stereo) [Compound 130, 1-[5-[2-[(1R*,2S*)-3,3-difluoro-1,2-dihydroxy-propyl]pyrimidin-5-yl]-7-(2-pyridyl)-1,3-benzothiazol-2-yl]-3-ethyl-urea], the MIC in the experiment on S. pyogenes (ATCC 51339) is at most 1 mg/L; in experiment [1], at most 2 mg/L; with S. aureus (ATCC 29213) it was at most 1 mg/L.
On to `CCNC(=O)Nc1nc2cc(-c3cnc([C@@H](O)[C@@H](C)O)nc3)cc(-c3ccccn3)c2s1` (relative stereo) [Compound 118, 1-[5-[2-[(1R*,2R*)-1,2-dihydroxypropyl]pyrimidin-5-yl]-7-(2-pyridyl)-1,3-benzothiazol-2-yl]-3-ethyl-urea], for which the MIC in the experiment on S. pyogenes (ATCC 51339) is at most 1 mg/L; in experiment [1] it was at most 2 mg/L; in the experiment on S. aureus (ATCC 29213), at most 1 mg/L.
For `CCNC(=O)Nc1nc2cc(-c3cnc(C(C)(C)O)nc3)cc(-c3cc(CN4CC(OCC)C4)ccn3)c2s1` [Compound 175, 1-[7-[4-[(3-ethoxyazetidin-1-yl)methyl]-2-pyridyl]-5-[2-(1-hydroxy-1-methyl-ethyl)pyrimidin-5-yl]-1,3-benzothiazol-2-yl]-3-ethyl-urea], the MIC with S. pyogenes (ATCC 51339) is at most 1 mg/L; in experiment [1], at most 2 mg/L; in the experiment on S. aureus (ATCC 29213), at most 1 mg/L.
Take `CCNC(=O)Nc1nc2cc(-c3cnc(C(C)O)nc3)cc(-c3cc(OCCOC)ccn3)c2s1` (stereo not drawn) [Compound 92, 1-ethyl-3-[5-[2-(1-hydroxyethyl)pyrimidin-5-yl]-7-[4-(2-methoxyethoxy)-2-pyridyl]-1,3-benzothiazol-2-yl]urea]: the MIC in the experiment on S. pyogenes (ATCC 51339) was at most 1 mg/L; in experiment [1], at most 2 mg/L; in the experiment with S. aureus (ATCC 29213) it was at most 1 mg/L.
Regarding `CNC(=O)Nc1nc2cc(-c3cnc(C(C)(C)O)nc3)cc(-c3ccccn3)c2s1` [Compound 82, 1-[5-[2-(1-hydroxy-1-methyl-ethyl)pyrimidin-5-yl]-7-(2-pyridyl)-1,3-benzothiazol-2-yl]-3-methyl-urea], the MIC in the experiment with S. pyogenes (ATCC 51339) is at most 1 mg/L; in experiment [1], at most 2 mg/L; with S. aureus (ATCC 29213), at most 1 mg/L.
Take `CCNC(=O)Nc1nc2cc(-c3cnc([C@@H](O)[C@H](C)O)nc3)cc(-c3ccccn3)c2s1` (relative stereo) [Compound 7, 1-[5-[2-[(1S*,2R*)-1,2-dihydroxypropyl]pyrimidin-5-yl]-7-(2-pyridyl)-1,3-benzothiazol-2-yl]-3-ethyl-urea]: the MIC with S. pyogenes (ATCC 51339) was at most 1 mg/L; in experiment [1], at most 2 mg/L; with S. aureus (ATCC 29213) it was at most 1 mg/L.
Regarding `CCNC(=O)Nc1nc2cc(-c3cnc(C(C)(C)O)nc3)cc(-c3cc(CNC4CC4)ccn3)c2s1` [Compound 53, 1-[7-[4-[(cyclopropylamino)methyl]-2-pyridyl]-5-[2-(1-hydroxy-1-methyl-ethyl)pyrimidin-5-yl]-1,3-benzothiazol-2-yl]-3-ethyl-urea], the MIC in the experiment on S. pyogenes (ATCC 51339) is at most 1 mg/L; in experiment [1] it was at most 2 mg/L; with S. aureus (ATCC 29213), at most 1 mg/L.
Regarding `CCNC(=O)Nc1nc2cc(-c3cnc(C(C)(C)O)nc3)cc(-c3cc(OCCOC)ccn3)c2s1` [Compound 80, 1-ethyl-3-[5-[2-(1-hydroxy-1-methyl-ethyl)pyrimidin-5-yl]-7-[4-(2-methoxyethoxy)-2-pyridyl]-1,3-benzothiazol-2-yl]urea], the results for the MIC (in the experiment with S. pyogenes (ATCC 51339); in experiment [1]; in the experiment on S. aureus (ATCC 29213)) were at most 1 mg/L, at most 2 mg/L and at most 1 mg/L, respectively.
As to `CCNC(=O)Nc1nc2cc(-c3cnc(C(C)O)nc3)cc(-c3cc(CN4CCSCC4)ccn3)c2s1` (stereo not drawn) [Compound 185, 1-ethyl-3-[5-[2-[1-hydroxyethyl]pyrimidin-5-yl]-7-[4-(thiomorpholinomethyl)-2-pyridyl]-1,3-benzothiazol-2-yl]urea], the MIC in the experiment on S. pyogenes (ATCC 51339) was at most 1 mg/L; in experiment [1] it was at most 2 mg/L; in the experiment with S. aureus (ATCC 29213), at most 1 mg/L.
As to `CCNC(=O)Nc1nc2cc(-c3cnc(C4(O)COC4)nc3)cc(-c3ccccn3)c2s1` [Compound 113, 1-ethyl-3-[5-[2-(3-hydroxyoxetan-3-yl)pyrimidin-5-yl]-7-(2-pyridyl)-1,3-benzothiazol-2-yl]urea], the MIC is at most 1 mg/L with S. pyogenes (ATCC 51339), at most 2 mg/L in experiment [1] and at most 1 mg/L in the experiment with S. aureus (ATCC 29213).
Regarding `CCNC(=O)Nc1nc2cc(-c3ccc(C(C)O)nc3)cc(-c3ccccn3)c2s1` (stereo not drawn) [Compound 95, 1-ethyl-3-[5-[6-(1-hydroxyethyl)-3-pyridyl]-7-(2-pyridyl)-1,3-benzothiazol-2-yl]urea], the MIC in the experiment with S. pyogenes (ATCC 51339) is at most 1 mg/L; in experiment [1], at most 2 mg/L; in the experiment on S. aureus (ATCC 29213) it was at most 1 mg/L.
In the case of `CCNC(=O)Nc1nc2cc(-c3cnc(C(C)O)nc3)cc(-c3cc(CN4CC(OC)C4)ccn3)c2s1` (stereo not drawn) [Compound 76, 1-ethyl-3-[5-[2-(1-hydroxyethyl)pyrimidin-5-yl]-7-[4-[(3-methoxyazetidin-1-yl)methyl]-2-pyridyl]-1,3-benzothiazol-2-yl]urea], the MIC with S. pyogenes (ATCC 51339) is at most 1 mg/L; in experiment [1] it was at most 2 mg/L; with S. aureus (ATCC 29213), at most 1 mg/L.
With `CCNC(=O)Nc1nc2cc(-c3cnc(C4(O)CCS(=O)(=O)CC4)nc3)cc(-c3ccccn3)c2s1` [Compound 173, 1-ethyl-3-[5-[2-(4-hydroxy-1,1-dioxo-thian-4-yl)pyrimidin-5-yl]-7-(2-pyridyl)-1,3-benzothiazol-2-yl]urea], the MIC in the experiment with S. pyogenes (ATCC 51339) is at most 1 mg/L; in experiment [1] it was at most 2 mg/L; with S. aureus (ATCC 29213), at most 1 mg/L.
As for `CCNC(=O)Nc1nc2cc(-c3cnc(C(C)O)cn3)cc(-c3ccccn3)c2s1` (stereo not drawn) [Compound 6, 1-ethyl-3-[5-[5-(1-hydroxyethyl)pyrazin-2-yl]-7-(2-pyridyl)-1,3-benzothiazol-2-yl]urea], the MIC with S. pyogenes (ATCC 51339) was at most 1 mg/L; in experiment [1], at most 2 mg/L; in the experiment with S. aureus (ATCC 29213), at most 1 mg/L.
For `CCNC(=O)Nc1nc2cc(-c3cnc(C4(O)CCOCC4)nc3)cc(-c3ccccn3)c2s1` [Compound 111, 1-ethyl-3-[5-[2-(4-hydroxytetrahydropyran-4-yl)pyrimidin-5-yl]-7-(2-pyridyl)-1,3-benzothiazol-2-yl]urea], the MIC with S. pyogenes (ATCC 51339) is at most 1 mg/L; in experiment [1] it was at most 2 mg/L; in the experiment on S. aureus (ATCC 29213), at most 1 mg/L.
For `CCNC(=O)Nc1nc2cc(-c3ccc(C(O)C(F)(F)F)nc3)cc(-c3cc(CN4CC(OC)C4)ccn3)c2s1` (stereo not drawn) [Compound 155, 1-ethyl-3-[7-[4-[(3-methoxyazetidin-1-yl)methyl]-2-pyridyl]-5-[6-[2,2,2-trifluoro-1-hydroxy-ethyl]-3-pyridyl]-1,3-benzothiazol-2-yl]urea], the MIC is at most 1 mg/L in the experiment on S. pyogenes (ATCC 51339), at most 2 mg/L in experiment [1] and at most 1 mg/L with S. aureus (ATCC 29213).
With `CCNC(=O)Nc1nc2cc(-c3cnc([C@@H](C)O)nc3)cc(-c3ccccn3)c2s1` [Compound 22, 1-ethyl-3-[5-[2-[(1R)-1-hydroxyethyl]pyrimidin-5-yl]-7-(2-pyridyl)-1,3-benzothiazol-2-yl]urea], the figures for the MIC (in the experiment on S. pyogenes (ATCC 51339); in experiment [1]; in the experiment with S. aureus (ATCC 29213)) were at most 1 mg/L, at most 2 mg/L and at most 1 mg/L, respectively.
As to `CCNC(=O)Nc1nc2cc(-c3cnc(C(O)CC)nc3)cc(-c3ccccn3)c2s1` (stereo not drawn) [Compound 59, 1-ethyl-3-[5-[2-(1-hydroxypropyl)pyrimidin-5-yl]-7-(2-pyridyl)-1,3-benzothiazol-2-yl]urea], the MIC is at most 1 mg/L in the experiment with S. pyogenes (ATCC 51339), at most 2 mg/L in experiment [1] and at most 1 mg/L in the experiment with S. aureus (ATCC 29213).
On to `CCNC(=O)Nc1nc2cc(-c3cnc(C(C)O)nc3)cc(-c3cc(OCC4CCCO4)ccn3)c2s1` (stereo not drawn) [Compound 104, 1-ethyl-3-[5-[2-(1-hydroxyethyl)pyrimidin-5-yl]-7-[4-(tetrahydrofuran-2-ylmethoxy)-2-pyridyl]-1,3-benzothiazol-2-yl]urea], for which the MIC is at most 1 mg/L in the experiment on S. pyogenes (ATCC 51339), at most 2 mg/L in experiment [1] and at most 1 mg/L with S. aureus (ATCC 29213).
On to `CCNC(=O)Nc1nc2cc(-c3ccc(C(C)(C)O)nc3)cc(-c3ccccn3)c2s1` [Compound 27, 1-ethyl-3-[5-[6-(1-hydroxy-1-methyl-ethyl)-3-pyridyl]-7-(2-pyridyl)-1,3-benzothiazol-2-yl]urea], for which the MIC was at most 1 mg/L in the experiment with S. pyogenes (ATCC 51339), at most 2 mg/L in experiment [1] and at most 1 mg/L with S. aureus (ATCC 29213).
With `CCNC(=O)Nc1nc2cc(-c3cnc(C(C)(C)O)nc3)cc(-c3cc(CN4CC(OC)C4)ccn3)c2s1` [Compound 31, 1-ethyl-3-[5-[2-(1-hydroxy-1-methyl-ethyl)pyrimidin-5-yl]-7-[4-[(3-methoxyazetidin-1-yl)methyl]-2-pyridyl]-1,3-benzothiazol-2-yl]urea], the values for the MIC (in the experiment with S. pyogenes (ATCC 51339); in experiment [1]; in the experiment on S. aureus (ATCC 29213)) were at most 1 mg/L, at most 2 mg/L and at most 1 mg/L, respectively.
Take `CCNC(=O)Nc1nc2cc(-c3cnc(C(C)(C)O)nc3)cc(-c3cc(CN4CC(C)(OC)C4)ccn3)c2s1` [Compound 114, 1-ethyl-3-[5-[2-(1-hydroxy-1-methyl-ethyl)pyrimidin-5-yl]-7-[4-[(3-methoxy-3-methyl-azetidin-1-yl)methyl]-2-pyridyl]-1,3-benzothiazol-2-yl]urea]: the MIC with S. pyogenes (ATCC 51339) is at most 1 mg/L; in experiment [1], at most 2 mg/L; in the experiment with S. aureus (ATCC 29213), at most 1 mg/L.
As for `CCNC(=O)Nc1nc2cc(-c3cnc([C@@H](O)[C@H](O)C(F)(F)F)nc3)cc(-c3ccccn3)c2s1` (relative stereo) [Compound 131, 1-ethyl-3-[7-(2-pyridyl)-5-[2-[(1R*,2S*)-3,3,3-trifluoro-1,2-dihydroxy-propyl]pyrimidin-5-yl]-1,3-benzothiazol-2-yl]urea], the MIC was at most 1 mg/L with S. pyogenes (ATCC 51339), at most 2 mg/L in experiment [1] and at most 1 mg/L with S. aureus (ATCC 29213).
